Measurements reported in PMC6283615, “Anilinoquinoline based inhibitors of trypanosomatid proliferation” (PLoS Neglected Tropical Diseases, 2018).
In brackets after ≈: the same amount, converted by molar mass. Where two headings read alike, the source gives them in different places.

Experiments:
[1] = system: L. major amastigote; assay: L. major intracellular amastigote luciferase assay in RAW 264.7 macrophages; assay type: cell-based, Leishmania major; conditions: intracellular amastigotes in RAW 264.7 macrophages, 96 h
Procedure: Amastigote assays were performed using pLEXSY-hyg2-luciferase L. major transfected promastigotes and the murine RAW 264.7 macrophage cell line (ATCC TIB-71, Manassas, VA). Briefly, luciferase-expressing promastigotes of each Leishmania species were generated by adding a luciferase encoding region to the pLEXSY-hyg2 vector (Jena Biosciences, Germany) as described. One μg of the linearized pLEXSY-hyg2-luciferase vector were electroporated (480 V, 13 Ω, and 500 μF) into 4×10^7 Leishmania promastigotes. Selection for stable promastigote transfectants was carried out using hygromycin B (100 μg/mL). RAW 264.7 macrophages were maintained in growth medium (Dulbecco’s Modified Eagle’s Medium supplemented with heat-inactivated 10% FBS (Life Technologies)). Cells were harvested and resuspended in growth medium at 2.0×10^5 cells/mL, and 1×10^4 cells/well were dispensed (final volume 50 μL) in each well of a 384 well tissue-culture treated white plate using a EVO Freedom liquid handling system (Tecan, Durham, NC). Plates were incubated at 37°C in 5% CO2 for 24 h after which the culture medium was removed from each well using the EVO Freedom liquid handler. Metacyclic phase pLEXSY-hyg2-luciferase-Leishmania promastigotes (MOI = 1:10 L. major) were added to each assay plate well and allowed to infect the RAW 264.7 macrophages. After an overnight incubation, the growth medium was aspirated and each well was washed three times with 40 μL of fresh growth medium to remove non-internalized promastigotes. After the third wash, 69.2 μL of growth medium was added to each well. Compound dilutions (final concentration ranges 0.5–10,000 ng/mL) were generated and dispensed using the liquid handling system. Compound treated plates were incubated at 37°C in 5% CO2 for 96 h. After incubation, 7.5 μL of a luciferin solution (Caliper Life Science, Waltham, MA) diluted to 150 μg/mL was added to each well, and the plates were incubated for 30 min at 37°C in the dark. Data were captured using an Infinite M200 plate reader (Tecan). EC50s were generated for each concentration response test using GraphPad Prism software 6.0.

[2] = system: T. cruzi amastigote (Tulahuen strain expressing β-galactosidase); assay: Intracellular T. cruzi assay in 3T3 cells (beta-galactosidase, 96 h); assay type: cell-based, Trypanosoma cruzi; conditions: read-out: T. cruzi amastigote EC50
Procedure: In a 96-well plate, 5×10^4 3T3 cells in DMEM without phenol red supplemented with 2% FBS were added to each well. Cells were incubated for 2 h to allow for attachment. Compounds were added in triplicates at 50 μM and in serial dilutions 1:2. To each well, 5×10^4 T. cruzi trypomastigotes (Tulahuen strain expressing β-galactosidase) were added and incubated at 37°C, 5% CO2 for 96 h. Following incubation, 50 μL of 500 μM chlorophenol Red-β-D-galactopyranoside (CPRG) in phosphate-buffered saline with 0.5% NP40 was added to each well and incubated at 37°C, 5% CO2 for 4 h. Absorbance was read at 590–595 nm.

[3] = LogD7.4; assay type: physicochemical; conditions: pH 7.4
[4] = Aqueous solubility; assay type: physicochemical
[5] = Human plasma protein binding; assay type: in vitro ADME; conditions: for fraction unbound: read-out: Human PPB (converted)
[6] = system: T. b. brucei (strain 427); assay: T. b. brucei proliferation assay (PrestoBlue, 48 h); assay type: cell-based, Trypanosoma brucei brucei
Procedure: The assay was performed following a previously reported procedure. Briefly, in a 96-well plate, compounds were added in triplicates at 50 μM and in serial dilutions 1:2 in HMI-9 medium. To each well, 100 μL of 2.5×10^3 T. b. brucei (strain 427, received as a gift from Dr. C. C. Wang at UCSF) in HMI-9 medium was were added and incubated at 37°C, 5% CO2 for 48 h. Following incubation, 20 μL of PrestoBlue were added to each well and incubated for additional 4 h. Fluorescence was read at 530 nm excitation and 590 nm emission.

[7] = Rat hepatocyte intrinsic clearance; assay type: in vitro ADME; conditions: for hepatocyte CLint: hepatocytes
[8] = Human liver microsome intrinsic clearance; assay type: in vitro ADME; conditions: for microsomal CLint: liver microsomes
[9] = system: HepG2 cells; assay: Drug toxicity to HepG2 cells (MTT, 48 h); assay type: cell-based, human; conditions: tested concentration ranges based on compound solubility
Procedure: HepG2 cells were cultured in complete Minimal Essential Medium prepared by supplementing MEM with 0.19% sodium bicarbonate, 10% heat inactivated FBS, 2 mM L-glutamine, 0.1 mM MEM non-essential amino, 0.009 mg/mL insulin, 1.76 mg/mL bovine serum albumin, 20 units/mL penicillin–streptomycin, and 0.05 mg/mL gentamycin. HepG2 cells cultured in complete MEM were first washed with 1× Hank’s Balanced Salt Solution (Invitrogen #14175095), trypsinized using a 0.25% trypsin/EDTA solution, assessed for viability using trypan blue, and resuspended at 250,000 cells/mL. Using a Tecan EVO Freedom robot, 38.3 μL of cell suspension were added to each well of clear, cell culture-treated 384-well microtiter plates for a final concentration of 9570 liver cells per well, and plated cells were incubated overnight in 5% CO2 at 37°C. Drug plates were prepared with the Tecan EVO Freedom using sterile 96 well plates containing twelve duplicate 1.6-fold serial dilutions of each test compound suspended in DMSO. 4.25 μL of diluted test compound was then added to the 38.3 μL of media in each well providing a […] final dilution of compound. Compounds were tested from a range of 57 ng/mL to 10,000 ng/mL for all assays. Mefloquine was used as a plate control for all assays with a concentration ranging from 113 ng/mL to 20,000 ng/mL. After a 48 h incubation period, 8 μL of a 1.5 mg/mL solution of MTT diluted in complete MEM media was added to each well. All plates were subsequently incubated in the dark for 1 h at room temperature. After incubation, the media and drugs in each well was removed by shaking the plate over sink, and the plates were left to dry in a fume hood for 15 mins. Next, 30 μL of isopropanol acidified by addition of HCl at a final concentration of 0.36% was added to dissolve the formazan dye crystals created by reduction of MTT. Plates are put on a 3-D rotator for 15–30 mins. Absorbance was determined in all wells using a Tecan iControl 1.6 Infinite plate reader.

[10] = Trypanosoma cruzi, TULAHUEN, NIH3T3, 96 h
[11] = intracellular in 3T3 cells, 96 h

Compound	EC50 ([1]; Leishmania major, RAW264.7)	EC50 [2, 10]	logD [3]	solubility [4]	fraction unbound [5]	EC50 ([6]; Trypanosoma brucei)	hepatocyte CLint [7]	microsomal CLint [8]	other results
C[C@@H]1[C@H](O)[C@@H](C)/C=C/C=C/C=C/C=C/C=C/C=C/C=C/[C@H](O[C@@H]2O[C@H](C)[C@@H](O)[C@H](N)[C@@H]2O)C[C@@H]2O[C@](O)(C[C@@H](O)C[C@@H](O)[C@H](O)CC[C@@H](O)C[C@@H](O)CC(=O)O[C@H]1C)C[C@H](O)[C@H]2C(=O)O [Amphotericin B, reference compound]	36 nM	0.48 µM	–	–	–	–	–	–	–
COc1ncc(Nc2ccnc3cc(-c4ccc(S(=O)(=O)N5CCN(C)CC5)cc4)ccc23)cn1 [Compound 2]	3100 nM	> 50 µM	3.1	7.3 µM (≈ 3.58 µg/mL)	0.12	2500 nM	–	–	–
COc1cnc(Nc2ccnc3cc(-c4ccc(S(=O)(=O)N5CCN(C)CC5)cc4)ccc23)cn1 [Compound 3]	19000 nM	9.7 µM	4.2	3.2 µM (≈ 1.57 µg/mL)	0.03	620 nM	–	–	–
CN1CCN(S(=O)(=O)c2ccc(-c3ccc4c(Nc5cnccn5)ccnc4c3)cc2)CC1 [Compound 4]	20000 nM	16 µM	3.2	4.2 µM (≈ 1.93 µg/mL)	0.06	910 nM	–	–	–
CN1CCN(S(=O)(=O)c2ccc(-c3ccc4c(Nc5ccc(Cl)cn5)ccnc4c3)cc2)CC1 [Compound 5]	2100 nM	2.8 µM	–	< 1 µM	< 0.01	270 nM	–	–	–
CN1CCN(S(=O)(=O)c2ccc(-c3ccc4c(Nc5cccc(Cl)c5)ccnc4c3)cc2)CC1 [Compound 7]	3400 nM	> 50 µM	–	–	< 0.01	> 50000 nM	15 µL/min/1e6 cells	150 µL/min/mg	–
Cc1ccc(Nc2ccnc3cc(-c4ccc(S(=O)(=O)N5CCN(C)CC5)cc4)ccc23)cc1Cl [Compound 8]	2400 nM	> 50 µM	–	–	–	650 nM	–	290 µL/min/mg	–
COc1ccc(Nc2ccnc3cc(-c4ccc(S(=O)(=O)N5CCN(C)CC5)cc4)ccc23)cc1 [Compound 9]	4400 nM	1.9 µM	4.2	9 µM (≈ 4.4 µg/mL)	–	520 nM	58 µL/min/1e6 cells	350 µL/min/mg	–
CN1CCN(S(=O)(=O)c2ccc(-c3ccc4c(Nc5ccc(OC(F)(F)F)cc5)ccnc4c3)cc2)CC1 [Compound 10]	780 nM	1.4 µM	4.5	–	< 0.01	270 nM	79 µL/min/1e6 cells	280 µL/min/mg	–
Cc1ccc(Nc2ccnc3cc(-c4ccc(S(=O)(=O)N5CCN(C)CC5)cc4)ccc23)cn1 [Compound 11]	3900 nM	9.9 µM	3.7	–	0.08	690 nM	49 µL/min/1e6 cells	400 µL/min/mg	–
CN1CCN(S(=O)(=O)c2ccc(-c3ccc4c(Nc5ccc(C(F)(F)F)nc5)ccnc4c3)cc2)CC1 [Compound 12]	6200 nM	5.4 µM	4.4	–	0.02	700 nM	260 µL/min/1e6 cells	390 µL/min/mg	–
CN1CCN(S(=O)(=O)c2cccc(-c3ccc4c(Nc5ccc(OCc6cccc(F)c6)c(Cl)c5)ccnc4c3)c2)CC1 [Compound 13]	200 nM	> 50 µM	4.8	< 1 µM	< 0.01	480 nM	24 µL/min/1e6 cells	110 µL/min/mg	–
CN1CCN(c2ccc(Nc3ccc4c(Nc5ccc(OCc6cccc(F)c6)c(Cl)c5)ccnc4c3)cc2)CC1 [Compound 17]	1200 nM	2.1 µM	–	–	–	120 nM	–	–	–
CN1CCN(c2ncc(Nc3ccc4c(Nc5ccc(OCc6cccc(F)c6)c(Cl)c5)ccnc4c3)cn2)CC1 [Compound 18]	870 nM	2.7 µM	–	–	–	160 nM	–	–	–
CN1CCN(c2ccnc(Nc3ccc4c(Nc5ccc(OCc6cccc(F)c6)c(Cl)c5)ccnc4c3)n2)CC1 [Compound 19]	2500 nM	2.7 µM	4.7	1 µM (≈ 0.57 µg/mL)	–	120 nM	4.6 µL/min/1e6 cells	21 µL/min/mg	–
CN1CCN(c2nccc(Nc3ccc4c(Nc5ccc(OCc6cccc(F)c6)c(Cl)c5)ccnc4c3)n2)CC1 [Compound 20]	1200 nM	4.3 µM	–	–	–	98 nM	–	–	–
COc1ccc(Nc2ccnc3cc(-c4cn[nH]c4)ccc23)cc1Cl [NEU-2087]	–	–	–	2 µM (≈ 0.702 µg/mL)	–	–	–	–	EC50 [1]: 29000 nM; Rat Hepatocyte CLint [7]: 5 μL/min/10^6 cells; EC50 [2, 11]: > 50 µM; LogD7.4 [3]: 3.5; HepG2 TC50 [9]: 23 µM; Human PPB [5]: 97%; Human Liver Microsome CLint [8]: 8 µL/min/mg; EC50 [6]: 910 nM
c1cnc(Nc2ccnc3cc(-c4cn[nH]c4)ccc23)cn1 [NEU-2088]	–	–	–	1 µM (≈ 0.288 µg/mL)	–	–	–	–	EC50 [1]: 3000 nM; Rat Hepatocyte CLint [7]: 5 μL/min/10^6 cells; EC50 [2, 11]: > 50 µM; LogD7.4 [3]: 2.6; HepG2 TC50 [9]: 4.5 µM; Human Liver Microsome CLint [8]: 130 µL/min/mg; EC50 [6]: 290 nM
COc1ccc(Nc2ccnc3cc(Nc4nccc(N5CCN(C)CC5)n4)ccc23)cc1Cl [NEU-2090]	–	–	–	570 µM (≈ 271 µg/mL)	–	–	–	–	EC50 [1]: 2300 nM; Rat Hepatocyte CLint [7]: 7.2 μL/min/10^6 cells; EC50 [2, 11]: > 20 µM; LogD7.4 [3]: 3.3; HepG2 TC50 [9]: 7.6 µM; Human PPB [5]: 99%; EC50 [6]: 350 nM
CN1CCN(c2ccnc(Nc3ccc4c(Nc5cnccn5)ccnc4c3)n2)CC1 [NEU-2091]	–	–	–	–	–	–	–	–	Rat Hepatocyte CLint [7]: 9.3 μL/min/10^6 cells; EC50 [2, 11]: > 20 µM; LogD7.4 [3]: 2.8
CN1CCN(c2nccc(Nc3ccc4c(Nc5cnccn5)ccnc4c3)n2)CC1 [NEU-2094]	–	–	–	–	–	–	–	–	EC50 [2, 11]: > 50 µM; LogD7.4 [3]: 2.9
CN1CCN(c2ccc(Nc3ccc4c(Nc5cnccn5)ccnc4c3)cc2)CC1 [NEU-2096]	–	–	–	–	–	–	–	–	EC50 [1]: 7900 nM; Rat Hepatocyte CLint [7]: 10 μL/min/10^6 cells; LogD7.4 [3]: 2.2; Human PPB [5]: 88%
